From ChEMBL document CHEMBL6092168, “Identification of novel indolinone derivatives as CTSC inhibitors to treat inflammatory bowel disease by modulating inflammatory factors” (Eur J Med Chem, 2024) come the findings set out here.

Data set [1] can be described thus: Acute toxicity in ICR mouse assessed as lung pathological change at 1500 mg/kg, po administered daily for 7 days by H and E staining based analysis. As to conditions: in vivo, 168 h, time 7 day. It is filed as organism-based.
Data set [2] can be described thus: Half life in male Sprague-Dawley rat at 2 mg/kg, iv measured at 5 to 1440 mins by LC-MS/MS analysis. Format: ADME, organism-based. The settings on record: in vivo, time 5-1440 min.
The target in data set [3] is T1, Neutrophil elastase (Mus musculus) (UniProt Q3UP87).
T1 sequence (whole entry): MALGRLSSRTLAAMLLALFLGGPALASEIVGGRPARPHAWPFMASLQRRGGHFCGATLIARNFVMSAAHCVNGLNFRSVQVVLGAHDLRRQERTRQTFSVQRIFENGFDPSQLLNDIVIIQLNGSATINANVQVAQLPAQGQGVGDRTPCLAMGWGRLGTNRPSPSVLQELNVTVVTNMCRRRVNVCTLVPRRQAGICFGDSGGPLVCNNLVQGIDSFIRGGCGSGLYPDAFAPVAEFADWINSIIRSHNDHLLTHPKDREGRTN
The experiment in a line: Induction of neutrophil elastase degradation in C57BL/6 mouse bone marrow cells assessed as remaining activity at 10 uM incubated for 12 hrs by Western blot analysis relative to control. Format: cell-based. The settings on record: Bone marrow cell.

In data set [4] the test system is Mus musculus. The experiment in a line: Anti-inflammatory activity in DSS-induced ulcerative colitis C57BL/6 mouse model assessed as effect on inflammatory factors at 60 mg/kg, administered twice daily. It is filed as functional, organism-based.
In data set [5] the test system is Mus musculus. The experiment in a line: Anti-inflammatory activity in DSS-induced ulcerative colitis male C57BL/6 mouse model assessed as reduction in cathepsin G level in serum at 15 to 30 mg/kg administered via gavage for 10 days. It is filed as functional, organism-based. As to conditions: dose 15-30 mg/kg, time 10.0 day.
For data set [6], the system named is Mus musculus. The experiment in a line: Anti-inflammatory activity in DSS-induced ulcerative colitis male C57BL/6 mouse model assessed as reduction in neutrophil elastase level in colon at 15 to 30 mg/kg administered via gavage for 10 days. The settings on record: dose 15-30 mg/kg, time 10.0 day. Format: functional, organism-based.
The target of data set [7] is T2, Myeloblastin (Mus musculus) (UniProt Q61096).
T2 sequence (whole entry): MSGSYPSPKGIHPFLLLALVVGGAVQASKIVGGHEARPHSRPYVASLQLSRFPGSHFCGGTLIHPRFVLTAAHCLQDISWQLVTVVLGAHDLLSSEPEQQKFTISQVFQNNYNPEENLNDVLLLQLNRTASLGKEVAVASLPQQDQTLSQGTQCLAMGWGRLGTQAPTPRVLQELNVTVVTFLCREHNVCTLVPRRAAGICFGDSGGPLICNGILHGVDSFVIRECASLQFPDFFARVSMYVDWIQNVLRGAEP
The experiment in a line: Induction of proteinase 3 degradation in C57BL/6 mouse bone marrow cells assessed as remaining activity at 10 uM incubated for 12 hrs by Western blot analysis relative to control. It is filed as cell-based. As to conditions: Bone marrow cell.

The subject of data set [8] is RAW264.7. The experiment in a line: Anti-inflammatory activity in mouse RAW264.7 cells assessed as inhibition of LPS-induced NO production preincubated for 1 hr followed by LPS addition and measured after 24 hrs by Griess reagent based assay. It is filed as functional, cell-based.
The target in data set [9] is T3, Cathepsin G (Homo sapiens) (UniProt P08311).
T3 sequence (whole entry): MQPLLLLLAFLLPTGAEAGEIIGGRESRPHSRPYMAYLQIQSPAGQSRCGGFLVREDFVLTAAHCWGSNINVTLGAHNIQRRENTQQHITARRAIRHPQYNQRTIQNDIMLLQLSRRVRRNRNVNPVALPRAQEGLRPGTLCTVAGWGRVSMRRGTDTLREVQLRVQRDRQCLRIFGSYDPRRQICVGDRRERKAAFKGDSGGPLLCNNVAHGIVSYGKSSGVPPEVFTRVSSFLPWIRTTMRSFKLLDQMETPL
The experiment in a line: Inhibition of Cathepsin G in human U-937 cells using N-Suc-Ala-Ala-Pro-Phe-pNA as substrate at 10 uM incubated for 5 days by […] based microplate reader analysis relative to control. Format: cell-based. As to conditions: time 5.0 day.

Data set [10] addresses T2, Myeloblastin (Mus musculus). The experiment in a line: In vivo inhibition of proteinase 3 in C57BL/6 mouse assessed as reduction in proteinase 3 activity in bone marrow administered orally once daily for 6 days by fluorescence based microplate reader. Format: functional, organism-based. As to conditions: dose 5-30 mg/kg, route po, time 6.0 day.
The test system of data set [11] is RAW264.7. The experiment in a line: Anti-inflammatory activity in LPS-stimulated mouse RAW264.7 cells assessed as reduction in TNF-alpha production incubated for 24 hrs by ELISA. As to conditions: dose 0.62-5 µM. It is filed as functional, cell-based.
Data set [12] can be described thus: Cmax in male Sprague-Dawley rat at 2 mg/kg, iv measured at 5 to 1440 mins by LC-MS/MS analysis. It is filed as ADME, organism-based. As to conditions: in vivo, time 5-1440 min.
For data set [13], the system named is Mus musculus. The experiment in a line: Anti-inflammatory activity in DSS-induced ulcerative colitis male C57BL/6 mouse model assessed as reduction in IL-1 beta expression in colon administered via gavage for 10 days by ELISA. It is filed as functional, organism-based. As to conditions: dose 15-60 mg/kg, time 10.0 day.
The test system of data set [14] is Mus musculus. The experiment in a line: Anti-inflammatory activity in DSS-induced ulcerative colitis male C57BL/6 mouse model assessed as reduction in IL- 6 expression in serum administered via gavage for 10 days by ELISA. It is filed as functional, organism-based. The settings on record: dose 15-60 mg/kg, time 10.0 day. (In an ELISA, binding on a coated surface is turned into a signal by an enzyme label.)

The subject of data set [15] is RAW264.7. The experiment in a line: Anti-inflammatory activity in mouse RAW264.7 cells assessed as inhibition of LPS-induced IL-1beta production at 5 uM preincubated for 1 hr followed by LPS addition and measured after 24 hrs by ELISA relative to control. It is filed as functional. Details: scale not given: the % may be the effect or the level left. The settings on record: time 25 hrs.

The nature of data set [16]: AUC (0 to infinity) in male Sprague-Dawley rat at 10 mg/kg, po measured at 5 to 1440 mins by LC-MS/MS analysis. As to conditions: in vivo, time 5-1440 min. Format: ADME, organism-based.
The target in data set [17] is T4, Cathepsin G (Mus musculus) (UniProt P28293).
T4 sequence (whole entry): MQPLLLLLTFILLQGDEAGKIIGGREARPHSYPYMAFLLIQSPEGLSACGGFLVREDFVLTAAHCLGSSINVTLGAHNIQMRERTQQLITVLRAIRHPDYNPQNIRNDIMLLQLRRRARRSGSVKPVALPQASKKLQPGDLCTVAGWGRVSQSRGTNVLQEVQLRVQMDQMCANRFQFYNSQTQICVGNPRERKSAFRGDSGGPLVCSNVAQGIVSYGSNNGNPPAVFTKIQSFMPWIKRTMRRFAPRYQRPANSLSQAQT
The experiment in a line: In vivo inhibition of Cathepsin G in C57BL/6 mouse assessed as reduction in cathepsin G activity in blood administered orally once daily for 6 days by fluorescence based microplate reader. As to conditions: dose 5-30 mg/kg, route po, time 6.0 day. It is filed as functional, organism-based.

Data set [18] deals with Mus musculus. The experiment in a line: Anti-inflammatory activity in DSS-induced ulcerative colitis male C57BL/6 mouse model assessed as reduction in Cathepsin C level in serum at 15 to 30 mg/kg administered via gavage for 10 days. Format: functional, organism-based. The settings on record: dose 15-30 mg/kg, time 10.0 day.
Data set [19] concerns the target T5, Neutrophil elastase (Homo sapiens) (UniProt P08246).
T5 sequence (whole entry): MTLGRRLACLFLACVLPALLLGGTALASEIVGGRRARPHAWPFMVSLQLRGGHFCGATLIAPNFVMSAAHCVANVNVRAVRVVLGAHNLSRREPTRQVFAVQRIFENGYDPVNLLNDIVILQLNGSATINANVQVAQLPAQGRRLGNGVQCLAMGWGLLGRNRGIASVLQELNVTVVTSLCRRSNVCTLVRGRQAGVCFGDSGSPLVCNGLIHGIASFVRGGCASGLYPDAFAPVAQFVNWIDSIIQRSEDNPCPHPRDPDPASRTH
The experiment in a line: Inhibition of neutrophil elastase in human U-937 cells using N-MeSuc-Ala-Pro-Val-pNA as substrate at 10 uM incubated for 5 days by […] based microplate reader analysis relative to control. It is filed as cell-based. The settings on record: time 5.0 day.

Calls of active or inactive are those of the source. No cut-off for these calls is given here.

Usually IC50 stands for the concentration that inhibits the measured activity by half. The inhibition is the percentage by which the read-out fell short of the control. For orientation: Cmax means the highest concentration seen after dosing. In general, AUC refers to concentration integrated over time. For `O=C1Nc2c(cccc2-c2ccc(NC3CCOCC3)cc2)/C1=C/c1ccnc2ccccc12`, the Activity entry in data set [1] was “Non-toxic”; in data set [3], 75%; in [7] it was 75%; in the data set with RAW264.7 [11], “Dose-dependent-effect”; with Mus musculus [13], “Dose-dependent-effect; Significant Reduction Observed In High Dose Group”; in the data set with Mus musculus [14], “Dose-dependent-effect; Significant Reduction Observed In High Dose Group”. Moreover, the Activity in the data set with RAW264.7 [15] is given as 90.5%. In addition, the t1/2 in data set [2] was determined as 2.26 h. The outcome in the data set on Mus musculus [4] was Active. In addition, the outcome in the data set with Mus musculus [5], in the data set with Mus musculus [6] and in the data set on Mus musculus [18] was inactive. For the same compound, the IC50 with RAW264.7 [8] amounted to 5.5 µM. Moreover, the inhibition in [9] was 17.2%; in data set [10], “Dose-dependent-effect”; in data set [17] it was “Dose-dependent-effect”; in data set [19], 24.5%. This compound showed a Cmax in [12] of 309 ng/mL. The AUC in data set [16] was determined as 407.54 ng·h/mL.
